Measured values as given in US6579718B1, “Carbazolylvinyl dye protein stains” (Molecular Probes, Inc., priority 2000, dated 2003).

What was measured:
[1] = system: amino acid homo- and hetero-polymers; assay: Dye staining of amino acid homo- and hetero-polymers copolymerized into polyacrylamide gel discs; conditions: gel discs with 0.1% SDS; no asterisk = moderate
From the text: The specificity of protein detection of the present method can be compared to that of silver, CBB, SYPRO Orange dye and SYPRO Red dye staining for a variety of synthetic poly(amino acids) copolymerized into a polyacrylamide gel matrix. To do this, homopolymers of L-arginine, asparagine, histidine, lysine, aspartate, glutamate, alanine, glycine, isoleucine, leucine, methionine, serine, threonine, tryptophan, tyrosine and proline are copolymerized into 15% T, 2.6% C polyacrylamide gels at a concentration of […]. Except when indicated, 0.1% sodium dodecyl sulfate is included in the polyacrylamide solution as well. The amino acid heteropolymers, poly(glutamate, alanine, tyrosine), poly(glutamate, tyrosine), poly(lysine, tyrosine), poly(glutamate, lysine, tyrosine), and poly(arginine, tyrosine) are copolymerized into polyacrylamide gels in an identical manner as the homopolymers. Blank gels containing no polymer are prepared for reference. The co-polymerized gels are cut into discs using the large end of a 1000 microliter pipet tip (Sorenson Bioscience, Inc., West Salt. Lake City, Utah) and stained in Falcon 48 well flat bottom tissue culture plates (Becton-Dickinson, Franklin Lakes, N.J.) on an orbital shaker operating at 50 RPM. Gel discs are quantified on a Roche Lumi-Imager system (Indianapolis, Ind.) and classified into three groups based upon staining intensity (strong, moderate, or weak staining).

BSA = BSA (Bos taurus, UniProt P02769); assay: Absorbance/emission spectra, fluorescence enhancement and quantum yield of dyes in solution +/- BSA (Example 21); type: physicochemical, bovine; conditions: for EM λ max, BSA / FE (fluorescence enhancement, BSA) / Quantum Yield (BSA) / ABS λ max, BSA: 150 μg/mL BSA; for EM λ max, BSA / EM λ max, unbound / ABS λ max, BSA / ABS λ max, unbound: 10 mM Tris-HCl, pH 7.5, 0.05% SDS; for FE (fluorescence enhancement, BSA): 0.05% SDS, at emission maxima; for FE (fluorescence enhancement, BSA) / Quantum Yield (BSA): 470 nm excitation; for Quantum Yield (BSA): relative to fluorescein in 0.1 M NaOH; for EM λ max, unbound / ABS λ max, unbound: dye without BSA
Description: A particular dye of this invention is generally selected for a particular assay using one or more of the following criteria: sensitivity to poly(amino acids), insensitivity to the presence of nucleic acids, dynamic range, photostability, staining time, and spectral properties. […] Although the fluorescence enhancements and quantum yields are low to moderate in solution, some are significant relative to the long wavelength emission maxima (see Table 1 and Example 21).
Measurements are performed using −1 μM dye+/−150 μg/mL BSA in 10 mM Tris-HCl, pH 7.5,+0.05% SDS with a 2.0 mL sample volume. Fluorescence enhancements are calculated at emission maxima in a standard fluorometer using 470 nm excitation. Fluorescence quantum yields are determined relative to fluorescein (in 0.1 M NaOH), using 470 nm excitation.

[2] = system: broad-range protein molecular weight markers; assay: Staining of broad-range molecular weight protein standards in SDS-polyacrylamide gels (Example 22, FIG. 2, 3); conditions: regardless of the buffer
Description: FIG. 2: Intensity profile comparison after staining broad-range protein molecular weight markers with SYPRO Orange dye in 7% acetic acid and phosohate-buffered saline. FIG. 2A.) Profile obtained with SYPRO Orange dye in 7% acetic acid. FIG. 2B.) Profile obtained with SYPRO Orange dye in 50 mM sodium phosphate, 150 mM sodium chloride, pH 7.0. Grey scale values of the fluorescence signals were inverted prior to obtaining the traces to facilitate evaluation of the peaks.
FIG. 3: Intensity profile comparison after staining broad-range protein molecular weight markers with Compound 9 in 7% acetic acid and phosphate-buffered saline. FIG. 3A.) Profile obtained with Compound 9 in 7% acetic acid. FIG. 3B.) Profile obtained with Compound 9 in 50 mM sodium phosphate, 150 mM sodium chloride, pH 7.0. Grey scale values of the fluorescence signals were inverted prior to obtaining the traces to facilitate evaluation of the peaks.
SDS-polyacrylamide gel electrophoresis is performed by standard methods utilizing 4% T, 2.6% C stacking gels, pH 6.8 and 15% T, 2.6% C separating gels, pH 8.8. % T is the total monomer concentration expressed in grams per 100 mL and % C is the percentage crosslinker. A staining solution of Compound 9 is prepared by diluting a stock solution that 5 is […] dye in DMSO in either 7.5% acetic acid or 50 mM Na2HPO4, 150 mM NaCl, pH 7.0 with vigorous mixing. Alternatively, a wide range of buffers are compatible with staining, including but not limited to formate, pH 4.0; citrate, pH 4.5; acetate, pH 5.0; MES, pH 6.0;
imidazole, pH 7.0; HEPES, pH 7.5; Tris acetate, pH 8.0; Tris-HCl, pH 8.5; Tris borate, 20 mM EDTA, pH 9.0; and bicarbonate, pH 10.0. Buffers should be prepared as 50-100 mM 10 solutions containing about 150 mM NaCl. Approximately 50-75 mL of staining solution is used for a typical mini-gel (5 cm×9 cm×1 mm). The gel is placed into the staining solution and the container is covered with aluminum foil to protect the dye from bright light. The gel is gently agitated for at least 30 minutes at room temperature using an orbital shaker (50:RPM). After staining, the gel is briefly dipped in water and visualized on a UV light box. […] As little as 1 ng of protein may be visualized when the fluorescent image is recorded by photography using a cellophane 490-nm long pass filter. […] In the latter buffer, protein bands are barely detectable above background fluorescence with these latter dyes.

BSA, sequence (P02769 25-607): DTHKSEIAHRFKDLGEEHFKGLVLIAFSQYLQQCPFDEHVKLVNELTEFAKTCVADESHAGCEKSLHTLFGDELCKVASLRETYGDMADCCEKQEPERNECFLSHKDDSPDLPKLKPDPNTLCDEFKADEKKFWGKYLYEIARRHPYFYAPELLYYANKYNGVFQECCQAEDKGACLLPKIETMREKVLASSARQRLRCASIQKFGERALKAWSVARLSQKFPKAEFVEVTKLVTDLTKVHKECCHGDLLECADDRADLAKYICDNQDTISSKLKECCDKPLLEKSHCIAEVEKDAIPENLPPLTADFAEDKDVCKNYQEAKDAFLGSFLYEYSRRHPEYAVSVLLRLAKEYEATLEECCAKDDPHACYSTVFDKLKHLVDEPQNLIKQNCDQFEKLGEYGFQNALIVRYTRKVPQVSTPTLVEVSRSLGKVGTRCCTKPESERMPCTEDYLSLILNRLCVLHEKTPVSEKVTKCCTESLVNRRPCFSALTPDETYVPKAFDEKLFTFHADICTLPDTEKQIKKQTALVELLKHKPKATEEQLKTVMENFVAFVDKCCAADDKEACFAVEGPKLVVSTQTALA

Compound	Staining intensity, Glu:Lys:Tyr heteropolymer [1]	Staining intensity, Ile homopolymer [1]	Staining intensity, Lys homopolymer [1]	Staining intensity, Lys:Tyr heteropolymer [1]	EM λ max, BSA (BSA) [nm]	FE (fluorescence enhancement, BSA) (BSA) [fold]	Quantum Yield (BSA) (BSA)	EM λ max, unbound (BSA) [nm]	ABS λ max, BSA (BSA) [nm]	ABS λ max, unbound (BSA) [nm]	Staining intensity, Arg homopolymer [1]	Staining intensity, Arg:Tyr heteropolymer [1]	Staining intensity, His homopolymer [1]	Appearance of stained proteins on UV light box [2]
Silver	Tyr*	Ile	Lys*	Lys:Tyr*										
CCn1c2ccccc2c2cc(/C=C/c3ccc4cc(OC)ccc4[n+]3C)ccc21 [Compound 17]					~610	2.5	0.04	679						
CCn1c2ccccc2c2cc(/C=C/c3ccc4ccccc4[n+]3CCCCS(=O)(=O)[O-])ccc21 [Compound 12]					587	34	0.10	679	453	441				
CCn1c2ccccc2c2cc(/C=C/c3cc[n+](CCCC(=O)O)c4ccccc34)ccc21.[Cl-] [Compound 11]					609	104	0.21	~700	483	475				
CCOCC(=O)CCC[n+]1ccc(/C=C/c2ccc3c(c2)c2ccccc2n3CC)c2ccccc21.[Br-] [Compound 10]					612	110	0.21	~700	492	468				
CCn1c2ccccc2c2cc(/C=C/C3=[N+](CCCCCC(=O)O)c4ccc(S(=O)(=O)[O-])cc4C3(C)C)ccc21 [Compound 18]					590	3.0	0.01	611	502	503				
CCOc1ccc(Nc2ccc(C(=C3C=CC(=[N+](CC)Cc4cccc(S(=O)(=O)[O-])c4)C=C3)c3ccc(N(CC)Cc4cccc(S(=O)(=O)[O-])c4)cc3)cc2)cc1.[Na+] [Coomassie Blue-R]	Glu:Lys:Tyr*	Ile	Lys*	Lys:Tyr*							Arg*	Arg:Tyr*	His	
CCn1c2ccccc2c2cc(/C=C/c3cc[n+](CCCS(=O)(=O)[O-])cc3)ccc21 [Compound 13]					553	15	0.24	588						very bright yellow bands against an orange background
O=S(=O)([O-])CCCC[n+]1ccc(/C=C/c2ccc3c(c2)c2ccccc2n3-c2ccccc2)c2ccccc21 [Compound 15]					591	52	0.25	670	469	468				
CCn1c2ccccc2c2cc(/C=C/c3sc4ccccc4[n+]3CCCS(=O)(=O)[O-])ccc21 [Compound 14]					576	15	0.08	638	464	448				
CCCCc1cc(/C=C/c2ccc3c(c2)c2ccccc2n3CC)c2ccccc2[n+]1-c1ccccc1.[Cl-] [Compound 16]					623	25	0.17	676	491	480				
